Measurements reported in the NIST ThermoML archive (doi:10.1016/j.fluid.2017.02.010).
± gives the expanded uncertainty stated by the source.

Conditions: 293.15 K; 101.33 kPa; Liquid; Other PVT measurement

mass density | Compound
790 ± 10 kg/m3 | CCCC1CCCCC1 [1-cyclohexylpropane]
877 ± 10 kg/m3 | c1ccccc1 [benzene]
778 ± 10 kg/m3 | C1CCCCC1 [cyclohexane]
940 ± 10 kg/m3 | c1ccc(C2CCCCC2)cc1 [cyclohexylbenzene]
753 ± 10 kg/m3 | CCCCCCCCCCCC [dodecane]
773 ± 10 kg/m3 | CCCCCCCCCCCCCCCC [hexadecane]
659 ± 10 kg/m3 | CCCCCC [hexane]
810 ± 10 kg/m3 | CCCCCCC1CCCCC1 [hexylcyclohexane]
718 ± 10 kg/m3 | CCCCCCCCC [nonane]
767 ± 10 kg/m3 | CCCCCCCCCCCCCC [tetradecane]

Compound | mass density
C1CCC(C2CCCCC2)CC1 [1,1'-bicyclohexyl] | 890 ± 10 kg/m3
